Results as given in patent US9695155B2, “Herbicidal substituted pyrimidinyloxy benzene compounds” (E. I. DU PONT DE NEMOURS AND COMPANY, priority 2013, dated 2017).

How the values were obtained:
bromegrass, downy = experiment: Test D preemergence; format: in vivo, Bromus tectorum; settings: Bromus tectorum, pre-emergence
Outline: (§1)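 Greenhouse herbicide screen. Sowing into silt loam for preemergence application; foliar application to 2–18 cm seedlings in potting mix for postemergence. 0–100 visual control rating after 7–21 d.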

field violet [1] = experiment: Test D preemergence; format: in vivo, Viola arvensis; settings: Viola arvensis, pre-emergence
Outline: as §1

lambsquarters = experiment: Test D preemergence; format: in vivo, Chenopodium album; settings: Chenopodium album, pre-emergence
Description: (§2) Seeds of plant species selected from bluegrass (annual bluegrass, Poa annua), blackgrass (Alopecurus myosuroides), canarygrass (littleseed canarygrass, Phalaris minor), chickweed (common chickweed, Stellaria media), galium (catchweed bedstraw, Galium aparine), bromegrass, downy (downy bromegrass, Bromus tectorum), field poppy (Papaver rhoeas), field violet (Viola arvensis), green foxtail (Setaria viridis), deadnettle (henbit deadnettle, Lamium amplexicaule), Italian ryegrass (Lolium multiflorum), kochia (Kochia scoparia), lambsquarters (Chenopodium album), oilseed rape (Brassica napus), pigweed (Amaranthus retroflexus), chamomile (scentless chamomile, Matricaria inodora), Russian thistle (Salsola kali), speedwell (bird's-eye speedwell, Veronica persica), spring barley (Hordeum vulgare), spring wheat (Triticum aestivum), wild buckwheat (Polygonum convolvulus), wild mustard (Sinapis arvensis), wild oat (Avena fatua), wild radish (Raphanus raphanistrum), windgrass (Apera spica-venti), winter barley (Hordeum vulgare), and winter wheat (Triticum aestivum) were planted into a silt loam soil and treated preemergence with test chemicals formulated in a non-phytotoxic solvent mixture which included a surfactant.
(§3) At the same time, these species were planted in pots containing Redi-Earth® planting medium (Scotts Company, 14111 Scottslawn Road, Marysville, Ohio 43041) comprising spaghnum peat moss, vermiculite, wetting agent and starter nutrients and treated with postemergence applications of the test chemicals formulated in the same manner. Plants ranged in height from 2 to 18 cm (1- to 4-leaf stage). Treated plants and controls were maintained in a controlled growth environment for 7 to 21 days after which time all species were compared to controls and visually evaluated. Plant response ratings, summarized in Table D, are based on a scale of 0 to 100 where 0 is no effect and 100 is complete control. A dash (-) response means no test result.

speedwell = experiment: Test D preemergence; format: in vivo, Veronica persica; settings: Veronica persica, pre-emergence
Outline: as §1

bluegrass = experiment: Test D postemergence; format: in vivo, Poa annua; settings: Poa annua, post-emergence, Postemergence, scale 0 to 100 (0 no effect, 100 complete control), read-out: Plant response rating, Bluegrass
Description: as §2, §3

field violet [2] = experiment: Test D postemergence; format: in vivo, Viola arvensis; settings: Viola arvensis, post-emergence
Description: as §2, §3

green foxtail = experiment: Test D postemergence; format: in vivo, Setaria viridis; settings: Setaria viridis, post-emergence
Description: as §2, §3

Italian ryegrass = experiment: Test D postemergence; format: in vivo, Lolium multiflorum; settings: Lolium multiflorum, post-emergence
Description: as §2, §3

oilseed rape = experiment: Test D postemergence; format: in vivo, Brassica napus; settings: Brassica napus, post-emergence
Description: as §2, §3

chamomile = experiment: Test D postemergence; format: in vivo, Matricaria inodora; settings: Tripleurospermum inodorum, post-emergence
Description: as §2, §3

wild buckwheat = experiment: Test D postemergence; format: in vivo, Polygonum convolvulus; settings: Fallopia convolvulus, post-emergence, Postemergence, scale 0 to 100 (0 no effect, 100 complete control), read-out: Plant response rating, Buckwheat, Wild
Description: as §2, §3

With `Fc1cccc(Oc2ncc(Cl)cn2)c1-n1cc(C(F)F)nn1` [Compound 141, 5-chloro-2-[2-[4-(difluoromethyl)-1H-1,2,3-triazol-1-yl]-3-fluorophenoxy]pyrimidine] the pest or weed control at 16 g/ha (bromegrass, downy; 16 g ai/ha, scale 0 (no effect) to 100 (complete control), read-out: Plant response rating, Bromegrass, Downy) was 30%, the pest or weed control at 31 g/ha (bromegrass, downy; 31 g ai/ha, scale 0-100, read-out: Plant response rating, Bromegrass, Downy) was 45% and the pest or weed control at 62 g/ha (bromegrass, downy; 62 g ai/ha, scale 0-100, read-out: Plant response rating, Bromegrass, Downy) was 85%. For the same compound, the pest or weed control at 125 g/ha (bromegrass, downy; 125 g ai/ha, scale 0-100, read-out: Plant response rating, Bromegrass, Downy) was 95%, the pest or weed control at 16 g/ha (field violet [1]; 16 g ai/ha, scale 0 (no effect) to 100 (complete control), read-out: Plant response rating, Field Violet) was 100% and the pest or weed control at 31 g/ha (field violet [1]; 31 g ai/ha, scale 0-100, read-out: Plant response rating, Field Violet) was 100%. For the same compound, the pest or weed control at 62 g/ha (field violet [1]; 62 g ai/ha, scale 0-100, read-out: Plant response rating, Field Violet) was 100%, the pest or weed control at 125 g/ha (field violet [1]; 125 g ai/ha, scale 0-100, read-out: Plant response rating, Field Violet) was 100% and the pest or weed control at 16 g/ha (lambsquarters; 16 g ai/ha, scale 0 (no effect) to 100 (complete control), read-out: Plant response rating, Lambsquarters) was 100%. It also gave a pest or weed control at 31 g/ha (lambsquarters; 31 g ai/ha, scale 0-100, read-out: Plant response rating, Lambsquarters) of 100%, a pest or weed control at 62 g/ha (lambsquarters; 62 g ai/ha, scale 0-100, read-out: Plant response rating, Lambsquarters) of 100% and a pest or weed control at 125 g/ha (lambsquarters; 125 g ai/ha, scale 0-100, read-out: Plant response rating, Lambsquarters) of 100%. It also gave a pest or weed control at 16 g/ha (speedwell; 16 g ai/ha, scale 0 (no effect) to 100 (complete control), read-out: Plant response rating, Speedwell) of 100%, a pest or weed control at 31 g/ha (speedwell; 31 g ai/ha, scale 0 (no effect) to 100 (complete control), read-out: Plant response rating, Speedwell) of 100% and a pest or weed control at 62 g/ha (speedwell; 62 g ai/ha, scale 0-100, read-out: Plant response rating, Speedwell) of 100%. It also gave a pest or weed control at 125 g/ha (speedwell; 125 g ai/ha, scale 0-100, read-out: Plant response rating, Speedwell) of 100%, a pest or weed control at 16 g/ha (bluegrass; 16 g ai/ha) of 5% and a pest or weed control at 31 g/ha (bluegrass; 31 g ai/ha) of 20%. The pest or weed control at 62 g/ha (bluegrass; 62 g ai/ha) was 35%, the pest or weed control at 125 g/ha (bluegrass; 125 g ai/ha) was 40% and the pest or weed control at 16 g/ha (field violet [2]; 16 g ai/ha, scale 0-100, read-out: Plant response rating, Field Violet) was 45%. The pest or weed control at 31 g/ha (field violet [2]; 31 g ai/ha, scale 0 to 100 (0 no effect, 100 complete control), read-out: Plant response rating, Field Violet) was 75%, the pest or weed control at 62 g/ha (field violet [2]; 62 g ai/ha, scale 0 to 100 (0 no effect, 100 complete control), read-out: Plant response rating, Field Violet) was 85% and the pest or weed control at 125 g/ha (field violet [2]; 125 g ai/ha, scale 0 to 100 (0 no effect, 100 complete control), read-out: Plant response rating, Field Violet) was 95%. The pest or weed control at 16 g/ha (green foxtail; 16 g ai/ha, scale 0-100, read-out: Plant response rating, Foxtail, Green) was 15%, the pest or weed control at 31 g/ha (green foxtail; 31 g ai/ha, scale 0 to 100 (0 no effect, 100 complete control), read-out: Plant response rating, Foxtail, Green) was 20% and the pest or weed control at 62 g/ha (green foxtail; 62 g ai/ha, scale 0 to 100 (0 no effect, 100 complete control), read-out: Plant response rating, Foxtail, Green) was 45%. For the same compound, the pest or weed control at 125 g/ha (green foxtail; 125 g ai/ha, scale 0 to 100 (0 no effect, 100 complete control), read-out: Plant response rating, Foxtail, Green) was 100%, the pest or weed control at 16 g/ha (Italian ryegrass; 16 g ai/ha, scale 0-100, read-out: Plant response rating, Ryegrass, Italian) was 5% and the pest or weed control at 31 g/ha (Italian ryegrass; 31 g ai/ha, scale 0 to 100 (0 no effect, 100 complete control), read-out: Plant response rating, Ryegrass, Italian) was 15%. The pest or weed control at 62 g/ha (Italian ryegrass; 62 g ai/ha, scale 0 to 100 (0 no effect, 100 complete control), read-out: Plant response rating, Ryegrass, Italian) was 20%, the pest or weed control at 125 g/ha (Italian ryegrass; 125 g ai/ha, scale 0 to 100 (0 no effect, 100 complete control), read-out: Plant response rating, Ryegrass, Italian) was 25% and the plant injury at 16 g/ha (oilseed rape; 16 g ai/ha, scale 0-100, read-out: Plant response rating, Oilseed Rape) was 75%. It also gave a plant injury at 31 g/ha (oilseed rape; 31 g ai/ha, scale 0 to 100 (0 no effect, 100 complete control), read-out: Plant response rating, Oilseed Rape) of 95%, a plant injury at 62 g/ha (oilseed rape; 62 g ai/ha, scale 0 to 100 (0 no effect, 100 complete control), read-out: Plant response rating, Oilseed Rape) of 100% and a plant injury at 125 g/ha (oilseed rape; 125 g ai/ha, scale 0 to 100 (0 no effect, 100 complete control), read-out: Plant response rating, Oilseed Rape) of 100%. It also gave a pest or weed control at 16 g/ha (chamomile; 16 g ai/ha, scale 0-100, read-out: Plant response rating, Chamomile) of 10%, a pest or weed control at 31 g/ha (chamomile; 31 g ai/ha, scale 0 to 100 (0 no effect, 100 complete control), read-out: Plant response rating, Chamomile) of 20% and a pest or weed control at 62 g/ha (chamomile; 62 g ai/ha, scale 0 to 100 (0 no effect, 100 complete control), read-out: Plant response rating, Chamomile) of 15%. For the same compound, the pest or weed control at 125 g/ha (chamomile; 125 g ai/ha, scale 0 to 100 (0 no effect, 100 complete control), read-out: Plant response rating, Chamomile) was 20%, the pest or weed control at 16 g/ha (wild buckwheat; 16 g ai/ha) was 100% and the pest or weed control at 31 g/ha (wild buckwheat; 31 g ai/ha) was 100%. It also gave a pest or weed control at 62 g/ha (wild buckwheat; 62 g ai/ha) of 100% and a pest or weed control at 125 g/ha (wild buckwheat; 125 g ai/ha) of 100%.
